# Laboratory results: US9982019B2, “Glycopeptide compound or pharmaceutical salt thereof and method for preparing same, and pharmaceutical compositions and applications thereof” (priority 2012, dated 2018)
# Assays:
# [1] = tested on: Feces enterococci (VSE clinical isolates: MEFA 0039); assay: In vitro antibacterial activity, agar two times dilution method, MIC; assay type: cell-based; settings: agar dilution; VSE clinical isolate MEFA 0039
# Source text: (§1) Testing results of in vitro antibacterial activity of some target compounds of the present invention are as follows:
# (§2) Drugs: firstly being dissolved in DMSO, and then being diluted to an appropriate concentration with sterile water, and afterwards successively being diluted for twice.
# (§3) Determination: referencing the standard of CSSI 2008 version, using a agar two times dilution method, determine the minimum inhibitory concentration (MIC values).
# (§4) Feces enterococci (VSE clinical isolates: MEFA 0039); Streptococcus pneumoniae (PISP: ATCC 49619).
# (§5) 3. Positive Control Drug is Vancomycin Hydrochloride.
# [2] = tested on: Streptococcus pneumoniae (PISP: ATCC 49619); assay: as above; assay type: cell-based; settings: for MIC Values of Compounds, Streptococcus pneumoniae: agar dilution, PISP ATCC 49619; for activity against streptococcus pneumoniae relative to vancomycin: compared with positive control vancomycin
# Source text: as §1, §2, §3, §4, §5
Compound,"MIC Values of Compounds, Enterococci [1] [µg/mL]","MIC Values of Compounds, Streptococcus pneumoniae [2] [µg/mL]",activity against streptococcus pneumoniae relative to vancomycin [2]
CNC(CC(C)C)C(=O)NC1C(=O)NC(CC(N)=O)C(=O)NC2C(=O)NC3C(=O)NC(C(=O)NC(C(=O)O)c4cc(O)c(CNCP(=O)(O)O)c(O)c4-c4cc3ccc4O)C(OC3CC(C)(N)C(O)C(C)O3)c3ccc(c(Cl)c3)Oc3cc2cc(c3OC2OC(CO)C(O)C(O)C2OC2CC(C)(N)C(O)C(C)O2)Oc2ccc(cc2Cl)C1O (centres unmarked) [Compound I1],0.5,0.125,
CNC(CC(C)C)C(=O)NC1C(=O)NC(CC(N)=O)C(=O)NC2C(=O)NC3C(=O)NC(C(=O)NC(C(=O)O)c4cc(O)c(CN5CCOCC5)c(O)c4-c4cc3ccc4O)C(OC3CC(C)(N)C(O)C(C)O3)c3ccc(c(Cl)c3)Oc3cc2cc(c3OC2OC(CO)C(O)C(O)C2OC2CC(C)(N)C(O)C(C)O2)Oc2ccc(cc2Cl)C1O (centres unmarked) [Compound I2],0.5,0.063,
CCCCCCCCCCNC1(C)CC(OC2c3ccc(c(Cl)c3)Oc3cc4cc(c3OC3OC(CO)C(O)C(O)C3OC3CC(C)(NCCCCCCCCCC)C(O)C(C)O3)Oc3ccc(cc3Cl)C(O)C(NC(=O)C(CC(C)C)N(C)CCCCCCCCCC)C(=O)NC(CC(N)=O)C(=O)NC4C(=O)NC3C(=O)NC2C(=O)NC(C(=O)O)c2cc(O)c(CNCCCC)c(O)c2-c2cc3ccc2O)OC(C)C1O (centres unmarked) [Compound I4],>8,>8,
CNC(CC(C)C)C(=O)NC1C(=O)NC(CC(N)=O)C(=O)NC2C(=O)NC3C(=O)NC(C(=O)NC(C(=O)O)c4cc(O)c(CN5CCOCC5)c(O)c4-c4cc3ccc4O)C(OC3CC(C)(N)C(O)C(C)O3)c3ccc(c(Cl)c3)Oc3cc2cc(c3OC2OC(CO)C(O)C(O)C2OC2CC(C)(NCc3ccccc3Br)C(O)C(C)O2)Oc2ccc(cc2Cl)C1O (centres unmarked) [Compound I5],0.25,0.125,
CCN(CC)Cc1c(O)cc2c(c1O)-c1cc(ccc1O)C1NC(=O)C3NC(=O)C(CC(N)=O)NC(=O)C(NC(=O)C(CC(C)C)NC)C(O)c4ccc(c(Cl)c4)Oc4cc3cc(c4OC3OC(CO)C(O)C(O)C3OC3CC(C)(NCc4ccccc4Br)C(O)C(C)O3)Oc3ccc(cc3Cl)C(OC3CC(C)(N)C(O)C(C)O3)C(NC1=O)C(=O)NC2C(=O)O (centres unmarked) [Compound I6],1,0.25,
CCCCNCc1c(O)cc2c(c1O)-c1cc(ccc1O)C1NC(=O)C3NC(=O)C(CC(N)=O)NC(=O)C(NC(=O)C(CC(C)C)NC)C(O)c4ccc(c(Cl)c4)Oc4cc3cc(c4OC3OC(CO)C(O)C(O)C3OC3CC(C)(NCc4ccccc4Br)C(O)C(C)O3)Oc3ccc(cc3Cl)C(OC3CC(C)(N)C(O)C(C)O3)C(NC1=O)C(=O)NC2C(=O)O (centres unmarked) [Compound I7],1,0.5,
CNC(CC(C)C)C(=O)NC1C(=O)NC(CC(N)=O)C(=O)NC2C(=O)NC3C(=O)NC(C(=O)NC(C(=O)O)c4cc(O)c(CN5CCOCC5)c(O)c4-c4cc3ccc4O)C(OC3CC(C)(N)C(O)C(C)O3)c3ccc(c(Cl)c3)Oc3cc2cc(c3OC2OC(CO)C(O)C(O)C2OC2CC(C)(NCc3cccc(Br)c3)C(O)C(C)O2)Oc2ccc(cc2Cl)C1O (centres unmarked) [Compound I8],0.25,0.063,
CNC(CC(C)C)C(=O)NC1C(=O)NC(CC(N)=O)C(=O)NC2C(=O)NC3C(=O)NC(C(=O)NC(C(=O)O)c4cc(O)c(CN5CCOCC5)c(O)c4-c4cc3ccc4O)C(OC3CC(C)(N)C(O)C(C)O3)c3ccc(c(Cl)c3)Oc3cc2cc(c3OC2OC(CO)C(O)C(O)C2OC2CC(C)(NCc3ccc(Br)cc3)C(O)C(C)O2)Oc2ccc(cc2Cl)C1O (centres unmarked) [Compound I9],0.25,≤0.031,more four times than vancomycin
CCN(CC)Cc1c(O)cc2c(c1O)-c1cc(ccc1O)C1NC(=O)C3NC(=O)C(CC(N)=O)NC(=O)C(NC(=O)C(CC(C)C)NC)C(O)c4ccc(c(Cl)c4)Oc4cc3cc(c4OC3OC(CO)C(O)C(O)C3OC3CC(C)(NCc4ccc(Br)cc4)C(O)C(C)O3)Oc3ccc(cc3Cl)C(OC3CC(C)(N)C(O)C(C)O3)C(NC1=O)C(=O)NC2C(=O)O (centres unmarked) [Compound I10],2,0.25,
CCCCNCc1c(O)cc2c(c1O)-c1cc(ccc1O)C1NC(=O)C3NC(=O)C(CC(N)=O)NC(=O)C(NC(=O)C(CC(C)C)NC)C(O)c4ccc(c(Cl)c4)Oc4cc3cc(c4OC3OC(CO)C(O)C(O)C3OC3CC(C)(NCc4ccc(Br)cc4)C(O)C(C)O3)Oc3ccc(cc3Cl)C(OC3CC(C)(N)C(O)C(C)O3)C(NC1=O)C(=O)NC2C(=O)O (centres unmarked) [Compound I11],1,0.25,
CNC(CC(C)C)C(=O)NC1C(=O)NC(CC(N)=O)C(=O)NC2C(=O)NC3C(=O)NC(C(=O)NC(C(=O)O)c4cc(O)c(CN5CCOCC5)c(O)c4-c4cc3ccc4O)C(OC3CC(C)(N)C(O)C(C)O3)c3ccc(c(Cl)c3)Oc3cc2cc(c3OC2OC(CO)C(O)C(O)C2OC2CC(C)(NCc3ccc(OC)cc3)C(O)C(C)O2)Oc2ccc(cc2Cl)C1O (centres unmarked) [Compound I12],2,1,
CNC(CC(C)C)C(=O)NC1C(=O)NC(CC(N)=O)C(=O)NC2C(=O)NC3C(=O)NC(C(=O)NC(C(=O)O)c4cc(O)c(CN5CCOCC5)c(O)c4-c4cc3ccc4O)C(OC3CC(C)(N)C(O)C(C)O3)c3ccc(c(Cl)c3)Oc3cc2cc(c3OC2OC(CO)C(O)C(O)C2OC2CC(C)(NCc3ccc(C(C)C)cc3)C(O)C(C)O2)Oc2ccc(cc2Cl)C1O (centres unmarked) [Compound I13],1,0.25,
CCCCNCc1c(O)cc2c(c1O)-c1cc(ccc1O)C1NC(=O)C3NC(=O)C(CC(N)=O)NC(=O)C(NC(=O)C(CC(C)C)NC)C(O)c4ccc(c(Cl)c4)Oc4cc3cc(c4OC3OC(CO)C(O)C(O)C3OC3CC(C)(NCc4ccc(C(C)C)cc4)C(O)C(C)O3)Oc3ccc(cc3Cl)C(OC3CC(C)(N)C(O)C(C)O3)C(NC1=O)C(=O)NC2C(=O)O (centres unmarked) [Compound I14],0.5,≤0.031,more four times than vancomycin
CCCCNCc1c(O)cc2c(c1O)-c1cc(ccc1O)C1NC(=O)C3NC(=O)C(CC(N)=O)NC(=O)C(N4CN(C)C(CC(C)C)C4=O)C(O)c4ccc(c(Cl)c4)Oc4cc3cc(c4OC3OC(CO)C(O)C(O)C3OC3CC(C)(N)C(O)C(C)O3)Oc3ccc(cc3Cl)C(OC3CC(C)(N)C(O)C(C)O3)C(NC1=O)C(=O)NC2C(=O)O (centres unmarked) [II1],0.25,0.125,
CCN(CC)Cc1c(O)cc2c(c1O)-c1cc(ccc1O)C1NC(=O)C3NC(=O)C(CC(N)=O)NC(=O)C(N4CN(C)C(CC(C)C)C4=O)C(O)c4ccc(c(Cl)c4)Oc4cc3cc(c4OC3OC(CO)C(O)C(O)C3OC3CC(C)(NCc4ccccc4Br)C(O)C(C)O3)Oc3ccc(cc3Cl)C(OC3CC(C)(N)C(O)C(C)O3)C(NC1=O)C(=O)NC2C(=O)O (centres unmarked) [II2],2,0.5,
